One experiment addresses T1, human APLNR (hAPLNR1) (Homo sapiens, UniProt P35414).
T1 construct: human APLNR ORF was also amplified by PCR and cloned into pcDNA3.1 (+) expression vector; expressed in transfected cells; host or cells: HEK293
T1 sequence (P35414 1-380): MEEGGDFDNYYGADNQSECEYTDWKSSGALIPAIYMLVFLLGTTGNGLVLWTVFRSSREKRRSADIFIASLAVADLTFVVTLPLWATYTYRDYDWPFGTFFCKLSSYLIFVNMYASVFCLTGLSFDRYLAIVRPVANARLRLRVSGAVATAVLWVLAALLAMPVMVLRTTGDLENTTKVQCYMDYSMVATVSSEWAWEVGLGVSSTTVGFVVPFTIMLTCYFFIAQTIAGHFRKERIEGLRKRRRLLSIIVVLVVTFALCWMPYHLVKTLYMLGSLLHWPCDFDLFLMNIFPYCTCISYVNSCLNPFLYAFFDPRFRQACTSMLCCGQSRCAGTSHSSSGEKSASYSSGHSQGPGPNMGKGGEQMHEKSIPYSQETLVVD
The experiment is described as follows: pGL3-CRE-luciferase reporter assay, HEK293 cells expressing human APLNR. Format: cell-based. The conditions noted are these: SEM; read-out: EC50 (nM) hAPLNR. The procedure: In brief, HEK293 cells were cultured on a six-well plate and grown for 24 h before transfection. The cells were then transfected with a mixture containing 700 ng pGL3-CRE-Luciferase reporter construct (or pGL4-SRE-Luciferase reporter construct), 200 ng of receptor expression plasmid [or empty pcDNA3.1(+) vector as a negative control], and 2 μl jetPRIME (Polyplus Transfection, Illkirch, France) in 200 μl buffer. Twenty-four hour later, HEK293 cells were sub-cultured into a 96-well plate at 37°C for an additional 24 h before treatment. After removal of medium from the 96-well plate, the cells were treated with 100 μl peptide-containing medium (or peptide-free medium) for 6 h in the presence or absence of forskolin (5 μM). […] The luciferase activity in each treatment group was expressed as the relative fold changes as compared with their respective control groups. The data were analyzed by non-linear regression followed by one-way ANOVA using GraphPad Prism 5 (GraphPad, San Diego, CA, USA). To validate the results, all experiments were repeated at least twice.

Experiment [1] concerns the target T2, zebrafish APLNR2a (zfAPLNR2a) (Danio rerio, UniProt Q7SZP9).
T2 construct: the open reading frame (ORF) of each APLNR was amplified from the animal; expressed in transfected cells; host or cells: HEK293
T2 sequence (Q7SZP9 1-362): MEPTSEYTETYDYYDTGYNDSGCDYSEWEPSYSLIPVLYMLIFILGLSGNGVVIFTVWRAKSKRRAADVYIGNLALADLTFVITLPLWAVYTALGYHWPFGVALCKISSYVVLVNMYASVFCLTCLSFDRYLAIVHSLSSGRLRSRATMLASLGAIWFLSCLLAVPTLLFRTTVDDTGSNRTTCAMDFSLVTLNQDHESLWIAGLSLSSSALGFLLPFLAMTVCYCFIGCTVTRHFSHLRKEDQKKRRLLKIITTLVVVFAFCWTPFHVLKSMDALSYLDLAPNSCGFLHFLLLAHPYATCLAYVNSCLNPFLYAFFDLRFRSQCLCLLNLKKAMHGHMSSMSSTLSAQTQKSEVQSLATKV
Briefly: pGL3-CRE-luciferase reporter assay, HEK293 cells expressing zebrafish APLNR2a. Format: cell-based. The procedure:
(§1) In brief, HEK293 cells were cultured on a six-well plate and grown for 24 h before transfection. The cells were then transfected with a mixture containing 700 ng pGL3-CRE-Luciferase reporter construct (or pGL4-SRE-Luciferase reporter construct), 200 ng of receptor expression plasmid [or empty pcDNA3.1(+) vector as a negative control], and 2 μl jetPRIME (Polyplus Transfection, Illkirch, France) in 200 μl buffer. Twenty-four hour later, HEK293 cells were sub-cultured into a 96-well plate at 37°C for an additional 24 h before treatment. After removal of medium from the 96-well plate, the cells were treated with 100 μl peptide-containing medium (or peptide-free medium) for 6 h in the presence or absence of forskolin (5 μM). Finally, HEK293 cells were lysed with 1 × passive lysis buffer for luciferase assay (Promega, Madison, WI, USA) and the luciferase activity of the cell lysate was measured by a Multimode microplate Reader (TriStar LB 941, EG&G Berthold, Germany) according to the manufacturer's instruction.
(§2) The luciferase activity in each treatment group was expressed as the relative fold changes as compared with their respective control groups. The data were analyzed by non-linear regression followed by one-way ANOVA using GraphPad Prism 5 (GraphPad, San Diego, CA, USA). To validate the results, all experiments were repeated at least twice.

For experiment [2], the target named is T3, zebrafish APLNR2b (zfAPLNR2b) (Danio rerio, UniProt A0T2N3).
T3 construct: the open reading frame (ORF) of each APLNR was amplified from the animal; expressed in transfected cells; host or cells: HEK293
T3 sequence (A0T2N3 1-359): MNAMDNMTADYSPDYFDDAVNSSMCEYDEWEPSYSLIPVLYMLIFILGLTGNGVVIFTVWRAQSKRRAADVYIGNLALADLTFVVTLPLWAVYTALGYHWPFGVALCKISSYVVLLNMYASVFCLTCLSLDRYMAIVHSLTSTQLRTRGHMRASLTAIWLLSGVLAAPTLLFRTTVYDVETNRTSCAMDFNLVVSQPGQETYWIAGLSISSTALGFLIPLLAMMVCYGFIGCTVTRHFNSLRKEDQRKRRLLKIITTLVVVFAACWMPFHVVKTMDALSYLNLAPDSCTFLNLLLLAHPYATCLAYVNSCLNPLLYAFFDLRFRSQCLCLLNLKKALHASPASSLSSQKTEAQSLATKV
Briefly: pGL3-CRE-luciferase reporter assay, HEK293 cells expressing zebrafish APLNR2b. Format: cell-based. Here is the method: as §1, §2

Experiment [3] relates to zebrafish APLNR3a (zfAPLNR3a). Briefly: pGL3-CRE-luciferase reporter assay, HEK293 cells expressing zebrafish APLNR3a. As to conditions: HEK293 cells transiently expressing zfAPLNR3a; inhibition of forskolin (5 μM)-stimulated pGL3-CRE-luciferase activity; 6 h; mean ± S.E. of 3 independent experiments; N = EC50 cannot be evaluated. Format: cell-based, zebrafish (Danio rerio). Here is the method: as §1, §2

Experiment [4] deals with tilapia APLNR3b (tiAPLNR3b). Briefly: pGL3-CRE-luciferase reporter assay, HEK293 cells expressing tilapia APLNR3b. Format: cell-based, Nile tilapia (Oreochromis niloticus). As to conditions: HEK293 cells transiently expressing tiAPLNR3b; inhibition of forskolin (5 μM)-stimulated pGL3-CRE-luciferase activity; 6 h; mean ± S.E. of 3 independent experiments; N = EC50 cannot be evaluated. Here is the method:
as §1, §2

Read-outs that look alike come from different tables or passages of the source. Positions of bridges follow the written chain, without caps; N, C: chain ends. Residues, ends and D or L forms follow the SMILES beside them. No end group written: not given here.

As for `CSCC[C@H](NC(=O)[C@H](CS)NC(=O)[C@H](CCCNC(=N)N)NC(=O)[C@H](CCCNC(=N)N)NC(=O)[C@H](Cc1c[nH]cn1)NC(=O)[C@H](CO)NC(=O)[C@H](CS)NC(=O)[C@H](CC(N)=O)NC(=O)[C@H](Cc1c[nH]cn1)NC(=O)[C@H](CCCNC(=N)N)NC(=O)[C@H](Cc1c[nH]cn1)NC(=O)[C@H](CC(C)C)NC(=O)[C@H](CCCCN)NC(=O)[C@H](CCCNC(=N)N)NC(=O)[C@H](CCCNC(=N)N)NC(=O)[C@H](CC(C)C)NC(=O)[C@H](C)NC(=O)[C@H](CC(C)C)NC(=O)[C@H](CC(N)=O)NC(=O)[C@H](C)NC(=O)[C@@H]1CCCN1C(=O)[C@H](CCCNC(=N)N)NC(=O)[C@@H](N)CCC(N)=O)C(=O)N1CCC[C@H]1C(=O)N[C@@H](CC(C)C)C(=O)N[C@@H](Cc1c[nH]cn1)C(=O)N[C@@H](CO)C(=O)N[C@@H](CCCNC(=N)N)C(=O)N[C@H](C(=O)N1CCC[C@H]1C(=O)N[C@@H](Cc1ccccc1)C(=O)N1CCC[C@H]1C(=O)O)C(C)C` [cELA-32b] (H-QRPANLALRRKLHRHNCSHRRCMPLHSRVPFP-OH), the EC50 on human APLNR (hAPLNR1) was 0.28 ± 0.05 nM; in experiment [1] (SEM), 1.68 ± 0.58 nM; in experiment [2] (SEM) it was 1.02 ± 0.23 nM.
As to `CSCC[C@H](NC(=O)[C@@H]1CSSC[C@H](NC(=O)[C@H](CC(N)=O)NC(=O)[C@H](Cc2c[nH]cn2)NC(=O)[C@H](CCCNC(=N)N)NC(=O)[C@H](Cc2c[nH]cn2)NC(=O)[C@H](CC(C)C)NC(=O)[C@H](CCCCN)NC(=O)[C@H](CCCNC(=N)N)NC(=O)[C@H](CCCNC(=N)N)NC(=O)[C@H](CC(C)C)NC(=O)[C@H](C)NC(=O)[C@H](CC(C)C)NC(=O)[C@H](CC(N)=O)NC(=O)[C@H](C)NC(=O)[C@@H]2CCCN2C(=O)[C@H](CCCNC(=N)N)NC(=O)[C@@H](N)CCC(N)=O)C(=O)N[C@@H](CO)C(=O)N[C@@H](Cc2c[nH]cn2)C(=O)N[C@@H](CCCNC(=N)N)C(=O)N[C@@H](CCCNC(=N)N)C(=O)N1)C(=O)N1CCC[C@H]1C(=O)N[C@@H](CC(C)C)C(=O)N[C@@H](Cc1c[nH]cn1)C(=O)N[C@@H](CO)C(=O)N[C@@H](CCCNC(=N)N)C(=O)N[C@H](C(=O)N1CCC[C@H]1C(=O)N[C@@H](Cc1ccccc1)C(=O)N1CCC[C@H]1C(=O)O)C(C)C` [cELA-32a] (H-QRPANLALRRKLHRHNCSHRRCMPLHSRVPFP-OH; disulfide 17-22), the EC50 at human APLNR (hAPLNR1) was determined as 0.26 ± 0.07 nM; in experiment [1] (SEM), 1.81 ± 0.74 nM; in experiment [2] (SEM) it was 2.55 ± 0.11 nM.
For “LVRPRGARRGNVRRPGGWRRLRRPRPRLSHKGPMPF [cApelin-36]” the same measures were 0.16 ± 0.06 nM, 2.96 ± 1.26 nM and 0.9 ± 0.33 nM.
`CSCC[C@H](NC(=O)[C@@H](N)CS)C(=O)N1CCC[C@H]1C(=O)N[C@@H](CC(C)C)C(=O)N[C@@H](Cc1cnc[nH]1)C(=O)N[C@@H](CO)C(=O)N[C@@H](CCCNC(=N)N)C(=O)N[C@H](C(=O)N1CCC[C@H]1C(=O)N[C@@H](Cc1ccccc1)C(=O)N1CCC[C@H]1C(=O)O)C(C)C` [cELA-11]: the 50% effective concentration (EC50) in experiment [1] and in experiment [2] was over 100 nM in each case.
On to `CSCC[C@H](NC(=O)[C@@H]1CCCN1C(=O)CNC(=O)[C@H](CCCCN)NC(=O)[C@H](Cc1c[nH]cn1)NC(=O)[C@H](CO)NC(=O)[C@H](CC(C)C)NC(=O)[C@H](CCCNC(=N)N)NC(=O)[C@@H]1CCCN1C(=O)[C@H](CCCNC(=N)N)NC(=O)[C@@H]1CCCN1)C(=O)N1CCC[C@H]1C(=O)N[C@@H](Cc1ccccc1)C(=O)O` [cApelin-13], for which the values for the EC50 (on human APLNR (hAPLNR1); in experiment [1] (SEM); in experiment [2] (SEM)) were 0.55 ± 0.21 nM, 2.82 ± 1.18 nM and 12.7 ± 5.21 nM, respectively.
With `CC(C)C[C@H](NC(=O)[C@@H]1CCCN1C(=O)[C@H](CC(C)C)NC(=O)[C@H](CS)NC(=O)[C@H](CCCNC(=N)N)NC(=O)[C@H](CCCCN)NC(=O)[C@H](CCCCN)NC(=O)[C@@H]1CCCN1C(=O)[C@H](CS)NC(=O)[C@H](CC(N)=O)NC(=O)[C@H](Cc1c[nH]cn1)NC(=O)[C@H](CCCNC(=N)N)NC(=O)[C@H](CCCNC(=N)N)NC(=O)[C@H](Cc1ccc(O)cc1)NC(=O)[C@@H](N)CCCCN)C(=O)N[C@@H](Cc1c[nH]cn1)C(=O)N[C@@H](CO)C(=O)N[C@@H](CCCNC(=N)N)C(=O)N[C@H](C(=O)N1CCC[C@H]1C(=O)N[C@@H](Cc1ccccc1)C(=O)N1CCC[C@H]1C(=O)O)C(C)C` [zfELA-22] (H-KYRRHNCPKKRCLPLHSRVPFP-OH; N-terminus and C-terminus assumed), the EC50 in experiment [1] (SEM) was 1.43 ± 0.57 nM; in experiment [2] (SEM) it was 1.78 ± 1.17 nM; in experiment [3], over 100 nM; in experiment [4], over 100 nM.

Source of the values: paper PMC6315173, “Characterization of the Apelin/Elabela Receptors (APLNR) in Chickens, Turtles, and Zebrafish: Identification of a Novel Apelin-Specific Receptor in Teleosts” (Frontiers in Endocrinology, 2018).
